The values that follow are results of earlier work, collected in patent publication US7432394B2, “Resolution of α-(phenoxy) phenylacetic acid derivatives with naphthyl-alkylamines” (Metabolex, Inc., priority 2005, dated 2008).

The structures appear in SMILES notation.

The target in the series is cytochrome P450 2C9 (Homo sapiens, UniProt P11712).
Sequence of cytochrome P450 2C9 (P11712 whole entry): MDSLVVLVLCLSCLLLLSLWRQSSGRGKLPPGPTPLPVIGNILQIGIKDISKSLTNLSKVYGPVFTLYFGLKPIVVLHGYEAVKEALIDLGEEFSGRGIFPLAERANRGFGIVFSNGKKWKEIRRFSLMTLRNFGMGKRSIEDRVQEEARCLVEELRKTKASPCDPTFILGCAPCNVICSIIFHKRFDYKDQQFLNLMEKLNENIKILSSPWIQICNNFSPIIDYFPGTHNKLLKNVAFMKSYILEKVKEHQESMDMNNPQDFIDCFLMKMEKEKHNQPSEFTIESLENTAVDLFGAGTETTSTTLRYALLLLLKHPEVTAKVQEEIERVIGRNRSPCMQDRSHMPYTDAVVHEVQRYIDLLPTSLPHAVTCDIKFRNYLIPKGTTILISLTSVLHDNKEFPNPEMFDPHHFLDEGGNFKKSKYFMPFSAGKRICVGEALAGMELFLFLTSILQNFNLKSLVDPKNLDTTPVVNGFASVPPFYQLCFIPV

As to `O=C(O)C(Oc1cccc(C(F)(F)F)c1)c1ccc(Cl)cc1` (single isomer, unassigned; (-)) [(−)-enantiomer of halofenic acid, (−)-4-chloro-α-(3-trifluoromethylphenoxy)phenylacetic acid], the “ability to inhibit cytochrome P450 2C9 compared to the (+)-enantiomer” value (fold less active than the (+)-enantiomer of halofenic acid) is “about twenty-fold less active”. For the compound `O=C(O)C(Oc1cccc(C(F)(F)F)c1)c1ccc(Cl)cc1` (racemic) [halofenic acid, (4-chlorophenyl)(3-trifluoromethylphenoxy)acetic acid], under “racemic acid, result in words”, the “inhibition of cytochrome P450 2C9” value is listed as “inhibits cytochrome P450 2C9”.
